{
  "source": "paper PMC5131319",
  "about": "“Occurrence, temporal trends, and half-lives of perfluoroalkyl acids (PFAAs) in occupational workers in China” (Scientific Reports, 2016)",
  "key": {"[1]": {"experiment": "Half-life estimated by annual decline rates of serum PFAAs (first-order model)", "type": "in vivo, human", "description": "Olsen et al.[21] found linear relationship between the logarithm of serum PFAAs concentration and time, and a first order model was adopted to estimate the half-lives of PFAAs. The elimination of PFAAs in humans was also described with the following equation: […]\nIf we set C(t) as 1/2C0, then the half-life\nwhere k is the elimination rate constant. We calculated k using two approaches in the present study. In the first approach, k is defined as Cltotal/Vd, where Vd stands for the volume of distribution of PFAAs in the human body. Cltotal represents the total daily PFAAs clearance in the human body; for men and women older than 50, it refers to renal clearance, while for young women, it is defined as the sum of menstrual clearance and renal clearance. To keep consistency with other studies, Vd of PFOS and PFHxS were set at 230 mL kg^−1, and Vd of PFOA was set at 170 mL kg^−1 in this study. In the second approach, k is defined as the average annual decline rates of PFAAs in workers who participated in this study.\nSerum PFAAs of workers were sequentially measured for 5 years, and they fluctuated during our sampling period, although different serum PFAAs decreased in certain years. […] For PFOA, 31 out of 42 workers decreased in the period of 2011–2012, and the serum PFOA concentration dropped by 41%. […] We assumed that there were no new inputs of PFAAs in these workers, and thus k in Eq (2) was set as the average annual serum PFAA decline rate. The half-lives of PFHxS, PFOA, and PFOS estimated by Eq (2) were 3.6, 1.7, and 1.9 years."}, "[2]": {"design": "method as in PMID 23980546, PMID 12499116, PMID 20236705", "conditions": "set value; cited from earlier work"}, "[3]": {"experiment": "PFAA concentration in serum of occupational workers (HPLC-ESI/MS/MS)", "type": "in vivo, human", "design": "Serum PFAA level: unit: ng/mL", "description": "The selected fluorochemical plant (Henxin Chemical Plant) in this study is one of the largest producers of PFOS-related chemicals in China and is located in Yingcheng, Hubei province. Perfluoroalkyl sulfonic acids (PFSAs) and perfluorotertiary amines are synthesized through an electro-chemical fluorination (ECF) process. We collected paired serum and urine samples from the occupational workers in the plant for five consecutive years, and the sampling activities were carried out in Nov. 2008, Nov. 2009, Nov. 2010, Dec. 2011, and Dec 2012, respectively. The Medical Research Ethics Committee, School of Medicine, Jianghan University, approved the ethics of this study, and all methods were performed in accordance with the relevant guidelines and regulations, moreover, all volunteers gave written informed consent. Demographic information of the donors, including gender, age, length of service, and work assignment, was collected with a questionnaire (Table S1). The sampled population included a total of 302 occupational workers, of which there were 89 female and 213 male participants. In total, 302 serum and 274 urine samples were collected.\nThe participants were told not to eat breakfast before the sampling, and morning urine samples and blood samples were collected. Serum was separated from the blood by centrifugation at 1100 × g at 4 °C for 10 min and then placed on ice. Serum samples were then transferred to our laboratory on the same day and stored in polypropylene containers at −20 °C until analysis.\nAll pre-treatment methods and instrument analysis of PFAAs in serum and urine samples are based on previous studies with minor modifications (see Supplementary Information)[3][31]. Based on the PFAA profiles in environmental matrices around the same plant in our previous study, only 3 main PFAAs, PFHxS, PFOA, and PFOS, were analyzed in the obtained serum and urine samples. Instrumental analysis of the PFAAs was performed by a HPLC-ESI/MS/MS system (HPLC: Waters 2695, MS: Waters Quattro Premier XE). The limits of detection (LODs) of PFHxS, PFOA, and PFOS were 0.020, 0.063, and 0.018 ng mL^−1 for serum samples and 0.008, 0.025, and 0.007 ng mL^−1 for urine samples, respectively. A procedural blank was performed for every batch of seven samples, and all of the blank levels were below the LODs. […] Details of quality assurance and quality control of the chemical analysis can be found in the Supplementary Information."}, "[4]": {"conditions": "fishery employees from Tangxun Lake; cited from earlier work"}, "[5]": {"conditions": "Fabric finishing agent department, N 8"}},
  "data": [
    {"smiles": "O=S(=O)(O)C(F)(F)C(F)(F)C(F)(F)C(F)(F)C(F)(F)C(F)(F)F", "note": "[PFHxS, perfluorohexane sulfonate]", "values": [
      {"measurement": "Annual drop of serum concentration", "setting": "[1]; 2009 to 2010, 37 workers", "value": 19, "unit": "%"},
      {"measurement": "half-life", "setting": "[1]; human, k = average annual serum decline rate, no new inputs assumed, two time points", "value": 1310, "unit": "days"},
      {"measurement": "Vd (volume of distribution in the human body)", "setting": "[2]", "value": 0.23, "unit": "L/kg"},
      {"measurement": "Serum concentration, mean", "setting": "[3]; All workers, N 302", "value": 1855, "unit": "ng/mL"},
      {"measurement": "Serum concentration, median", "setting": "[3]; All workers, N 302", "value": 764, "unit": "ng/mL"},
      {"measurement": "Serum PFAA level", "setting": "[3]; Electrolytic Department, length of service 1-3 years", "value": 960},
      {"measurement": "Serum PFAA level", "setting": "[3]; Electrolytic Department, length of service < 1 year", "value": 197},
      {"measurement": "Serum PFAA level", "setting": "[3]; Electrolytic Department, length of service >3 years", "value": 1116},
      {"measurement": "Serum concentration, mean", "setting": "[3]; Electrolytic department, N 74", "value": 1469, "unit": "ng/mL"},
      {"measurement": "Serum concentration, median", "setting": "[3]; Electrolytic department, N 74", "value": 1011, "unit": "ng/mL"},
      {"measurement": "Serum concentration, range", "setting": "[3]; Electrolytic department, N 74", "value": "46.6 to 6759", "unit": "ng/mL"},
      {"measurement": "Serum concentration, mean", "setting": "[3]; [5]", "value": 1956, "unit": "ng/mL"},
      {"measurement": "Serum concentration, median", "setting": "[3]; [5]", "value": 1768, "unit": "ng/mL"},
      {"measurement": "Serum concentration, range", "setting": "[3]; [5]", "value": "550 to 4690", "unit": "ng/mL"},
      {"measurement": "Serum PFAA level", "setting": "[3]; Management Office, length of service 1-3 years", "value": 65.1},
      {"measurement": "Serum PFAA level", "setting": "[3]; Management Office, length of service < 1 year", "value": 8.5},
      {"measurement": "Serum PFAA level", "setting": "[3]; Management Office, length of service >3 years", "value": 186},
      {"measurement": "Serum concentration, mean", "setting": "[3]; Management office, N 92", "value": 331, "unit": "ng/mL"},
      {"measurement": "Serum concentration, median", "setting": "[3]; Management office, N 92", "value": 169, "unit": "ng/mL"},
      {"measurement": "Serum PFAA level", "setting": "[3]; Research Building, length of service 1-3 years", "value": 946},
      {"measurement": "Serum PFAA level", "setting": "[3]; Research Building, length of service < 1 year", "value": 26},
      {"measurement": "Serum PFAA level", "setting": "[3]; Research Building, length of service >3 years", "value": 607},
      {"measurement": "Serum concentration, mean", "setting": "[3]; Research building, N 27", "value": 842, "unit": "ng/mL"},
      {"measurement": "Serum concentration, median", "setting": "[3]; Research building, N 27", "value": 506, "unit": "ng/mL"},
      {"measurement": "Serum concentration, range", "setting": "[3]; Research building, N 27", "value": "3.0 to 3360", "unit": "ng/mL"},
      {"measurement": "Serum PFAA level", "setting": "[3]; Sulfonation Department, length of service 1-3 years", "value": 1477},
      {"measurement": "Serum PFAA level", "setting": "[3]; Sulfonation Department, length of service < 1 year", "value": 1129},
      {"measurement": "Serum PFAA level", "setting": "[3]; Sulfonation Department, length of service >3 years", "value": 3087},
      {"measurement": "Serum concentration, mean", "setting": "[3]; Sulfonation department, N 101", "value": 3778, "unit": "ng/mL"},
      {"measurement": "Serum concentration, median", "setting": "[3]; Sulfonation department, N 101", "value": 2250, "unit": "ng/mL"},
      {"measurement": "Serum concentration, geometric mean", "setting": "[3]; all occupational workers", "value": 628, "unit": "ng/mL"},
      {"measurement": "Average serum concentration (Average ± SD)", "setting": "[3]; female workers, n 89", "value": "1,044 ± 1718 ng mL^−1"},
      {"measurement": "concentration at 2009 calendar year", "setting": "[3]; human, serum, 2009, 37 workers, read-out: Serum concentration in workers (decline estimate)", "value": 455, "unit": "ng/mL"},
      {"measurement": "concentration at 2010 calendar year", "setting": "[3]; human, serum, 2010, 37 workers, read-out: Serum concentration in workers (decline estimate)", "value": 366, "unit": "ng/mL"},
      {"measurement": "concentration at 2008 calendar year", "setting": "[3]; human, serum, other: occupational exposure, 46 workers sampled at least three times, 2008, read-out: Serum concentration, GM", "value": 328, "unit": "ng/mL"},
      {"measurement": "concentration at 2012 calendar year", "setting": "[3]; human, serum, other: occupational exposure, 46 workers sampled at least three times, 2012, read-out: Serum concentration, GM", "value": 1670, "unit": "ng/mL"},
      {"measurement": "Average serum concentration (Average ± SD)", "setting": "[3]; male workers, n 213", "value": "2,191 ± 3,050 ng mL^−1"},
      {"measurement": "Serum concentration, GM", "setting": "[3]; workers with service length 1–3 years", "value": 521, "unit": "ng/mL"},
      {"measurement": "Serum concentration, GM", "setting": "[3]; workers with service length less than 1 year", "value": 212, "unit": "ng/mL"},
      {"measurement": "Serum concentration, GM", "setting": "[3]; workers with service length more than 3 years", "value": 830, "unit": "ng/mL"},
      {"measurement": "Clrenal, median", "setting": "[4]", "value": 0.012, "unit": "mL/day/kg"}
    ]}
  ]
}
